Results taken from US7541368B2, “Pyrazoles as inhibitors of tumor necrosis factor” (Aventis Pharmaceuticals Inc., priority 2003, dated 2009).
Like-named read-outs stand apart in the source and are kept apart here.

What was measured:
[1] = target: T1, Inactive N-terminal His6 tagged murine P38 (Mus musculus, UniProt P47811); experiment: p38 cascade assay (HTRF; inactive p38 activated by MKK-6, ATF-2 phosphorylation); format: biochemical; conditions: inactive p38 preincubated with compound, then MKK-6, ATF-2, ATP; read-out: 50% inhibition in the p38 cascade assay at concentrations within the range
T1 construct: His6 (N); made in house
Description: The homogeneous time resolved fluorescence method (HTRF) assay measured the phosphorylation of human activating transcription factor (ATF)-2 protein by P38 following activation by MKK-6 and was run in A384 well plate format. […] MBP-tagged mouse MKK-6 (final concentration 50 nM), GST-tagged ATF-2 (fmal concentration 200 nM) and ATP (final concentration 50 μM) were then added and the incubation continued for 90 min. p38, MKK-6 and ATF-2 were prepared in the Protein Production Group, Aventis Pharmaceuticals. XL665 labeled anti-GST antibody (Cis Bio International) and cryptate labeled anti-pbospho-ATF2 antibody (Cis Bio International) were then added to generate the specific signal proportional to the phosphorylation of the substrate. The close proximity of XL665 labeled anti-GST antibody/phosphorylated GST-ATF2 complex and the cryptate labeled anti-phospho-ATF2 antibody results in a fluorescence transfer from cryptate to XL665. The resulting fluorescence signal was than read on a LJL Acquest set at multi-method mode using a fluorescence filter set (E=360 nm, Em=615/665 nm) with UV dichroic mirror (Integration time: 300000 μs). The results are reported as IC50 values. Compounds were tested over the concentration range of 3×10^−10M to 3×10^−5M.

[2] = tested on: TNF-alpha release in THP-1 cells; experiment: LPS-induced TNF-alpha release in THP-1 cells; format: cell-based; conditions: Homo sapiens, THP-1, LPS-stimulated THP-1 cells
Outline: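 Undifferentiated THP-1 monocytes (1×10^6 cells/ml, 1% FCS) preincubated 1 h at 37° C with compound (1×10^−9 to 1×10^−6 M, 0.3% DMSO), then stimulated with LPS (20 μg/ml) for 18 h. Supernatant TNF-alpha measured by sandwich ELISA (TMB read-out), interpolated from a log/log standard curve (0.125-16 ng/ml).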

[3] = target: T2, Murine p38 (Mus musculus, UniProt P47811); experiment: Murine p38α standard assay against pre-activated p38 (ATF-2 phosphorylation, DELFIA); format: biochemical; conditions: murine p38, ATF-2 substrate
T2 construct: purchased CalBiochem 506122
Description: Compounds of the invention were tested in a conventional assay against pre-activated p38. Murine p38 enzyme activity was determined by measuring the incorporation of the γ-phosphate of ATP into ATF-2.
Human GST-tagged ATF-2 (50 μg/ml) was coated onto 96 well plates. Assay buffer (25 mM Hepes buffer, pH 7.7 containing 25 mM magnesium chloride, 2 mM dithiothreitol, 1 mM sodium orthovanadate and 100 μM ATP) was then added to each well. Compounds were dissolved in DMSO (100%) and added to the assay buffer to give a fmal DMSO concentration of 0.3%. Murine p38 (CalBiochem Catalog # 506122; 40 ng/ml) was then added and the assay continued for 1 hour.
Phosphorylated ATF-2 was quantitated using a rabbit anti-human phospho (threonine 71)-specific ATF-2 primary antibody (Cell Signaling, Catalog # 9221B) followed by a sheep europium N^1-labelled anti-rabbit IgG secondary antibody (Perkin Elmer Life Sciences Catalog # AD0105) and addition of the DELFIA enhancement solution (Perkin Elmer Life Sciences) resulting.
Fluorescence was measured using a Wallac Victor^2 1420 multi-label HTS counter (Perkin Elmer Life Sciences). The results are reported as IC50 values. Compounds were tested over the concentration range of 3×10^−10M to 3>10^−5M.

[4] = TNF-alpha by ELISA, read-out: THP 1 cells
[5] = read-out: 50% inhibition in the LPS-induced TNF-alpha release in THP-1 cells assay at concentrations within the range

T2 sequence (P47811 whole entry): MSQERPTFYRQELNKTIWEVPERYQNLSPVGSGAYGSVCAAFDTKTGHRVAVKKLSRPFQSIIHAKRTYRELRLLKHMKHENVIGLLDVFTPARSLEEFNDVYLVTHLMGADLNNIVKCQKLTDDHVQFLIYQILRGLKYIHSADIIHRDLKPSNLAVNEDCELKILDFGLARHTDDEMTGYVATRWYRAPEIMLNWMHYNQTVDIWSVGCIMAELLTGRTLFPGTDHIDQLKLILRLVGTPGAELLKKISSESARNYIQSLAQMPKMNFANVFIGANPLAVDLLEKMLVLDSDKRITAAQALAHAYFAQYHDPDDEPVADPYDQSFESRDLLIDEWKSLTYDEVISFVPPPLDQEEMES
T1 sequence (P47811 whole entry): as above

Row | SMILES | IC50 [1] [nM] | IC50 [2, 5] [nM] | IC50 [2, 4] [nM] | IC50 [3] [nM]
1 | COc1ccc(C(=O)N2CCC(Cc3ccc(NC(=O)Nc4cc(C(C)(C)C)nn4-c4ccc(C)cc4)cc3)CC2)c(OC)c1 [Compound A218, 1-(5-tert-Butyl-2-p-tolyl-2H-pyrazol-3-yl)-3-{4-[1-(2,4-dimethoxy-benzoyl)-piperidin-4-ylmethyl]-phenyl}-urea] | 10 to 100 | 10 to 500 | 15.5 | 230
2 | Cc1ccc(-n2nc(C(C)(C)C)cc2NC(=O)Nc2ccc(CC3CCN(C(=O)c4ccsc4)CC3)cc2)cc1 [Compound A294, 1-(5-tert-Butyl-2-p-tolyl-2H-pyrazol-3-yl)-3-{4-[1-(thiophene-3-carbonyl)-piperidin-4-ylmethyl]-phenyl}-urea] | 10 to 100 | 10 to 500 | – | –
3 | Cc1ccc(-n2nc(C(C)(C)C)cc2NC(=O)Nc2ccc(CC3CCN(C(=O)c4cnc(O)c(Cl)c4)CC3)cc2)cc1 [Compound A326, 1-(5-tert-Butyl-2-p-tolyl-2H-pyrazol-3-yl)-3-{4-[1-(5-chloro-6-hydroxy-pyridine-3-carbonyl)-piperidin-4-ylmethyl]-phenyl}-urea] | 10 to 100 | 10 to 500 | – | –
4 | Cc1ccc(-n2nc(C(C)(C)C)cc2NC(=O)Nc2ccc(CC3CCN(C(=O)c4cccc(C)n4)CC3)cc2)cc1 [Compound A334, 1-(5-tert-Butyl-2-p-tolyl-2H-pyrazol-3-yl)-3-{4-[1-(6-methyl-pyridine-2-carbonyl)-piperidin-4-ylmethyl]-phenyl}-urea] | 10 to 100 | 10 to 500 | – | –
5 | CC(=O)OCc1ccc(C(=O)N2CCC(Cc3ccc(NC(=O)Nc4cc(C(C)(C)C)nn4-c4ccc(C)cc4)cc3)CC2)cc1 [Compound A336, Acetic acid 4-(4-{4-[3-(5-tert-butyl-2-p-tolyl-2H-pyrazol-3-yl)-ureido]-benzyl}-piperidin-1-carbonyl)-benzyl ester] | 10 to 100 | 10 to 500 | – | –
6 | Cc1ccc(-n2nc(C(C)(C)C)cc2NC(=O)Nc2ccc(CC3CCN(C(=O)CNC(=O)c4ccccc4)CC3)cc2)cc1 [Compound A352, N-[2-(4-{4-[3-(5-tert-Butyl-2-p-tolyl-2H-pyrazol-3-yl)-ureido]-benzyl}-piperidin-1-yl)-2-oxo-ethyl]-benzamide] | 10 to 100 | 10 to 500 | – | –
7 | Cc1ccc(-n2nc(C(C)(C)C)cc2NC(=O)Nc2ccc(CC3CCN(C(=O)c4ccc5[nH]ccc5c4)CC3)cc2)cc1 [Compound A361, 1-(5-tert-Butyl-2-p-tolyl-2H-pyrazol-3-yl)-3-{4-[1-(1H-indole-5-carbonyl)-piperidin-4-ylmethyl]-phenyl}-urea] | 10 to 100 | 10 to 500 | – | –
8 | Cc1ccc(-n2nc(C(C)(C)C)cc2NC(=O)Nc2ccc(CC3CCN(C(=O)c4ccncc4)CC3)cc2)cc1 [Compound A364, 1-(5-tert-Butyl-2-p-tolyl-2H-pyrazol-3-yl)-3-{4-[1-(pyridine-4-carbonyl)-piperidin-4-ylmethyl]-phenyl}-urea] | 10 to 100 | 10 to 500 | – | –
9 | COCC(=O)N1CCC(Cc2ccc(NC(=O)Nc3cc(C(C)(C)C)nn3-c3ccc(C)cc3)cc2)CC1 [Compound A367, 1-(5-tert-Butyl-2-p-tolyl-2H-pyrazol-3-yl)-3-{4-[1-(2-methoxy-acetyl)-piperidin-4-ylmethyl]-phenyl}-urea] | 10 to 100 | 10 to 500 | – | –
10 | COc1ccc(C(=O)N2C3CCC2CC(Cc2ccc(NC(=O)Nc4cc(C(C)(C)C)nn4-c4ccc(C)cc4)cc2)C3)c(OC)c1 (centres unmarked) [Example 4, 1-(5-tert-Butyl-2-p-tolyl-2H-pyrazol-3-yl)-3-{4-[8-(2,4-dimethoxy-benzoyl)-8-aza-bicyclo[3.2.1]oct-3-ylmethyl]-phenyl}-urea] | – | – | 79.5 | 1170
11 | COc1ccc(C(=O)N2C3CCC2CC(Cc2ccccc2NC(=O)Nc2cc(C(C)(C)C)nn2-c2ccc(C)cc2)C3)c(OC)c1 (centres unmarked) [Example 5, 1-(5-tert-butyl-2-p-tolyl-2H-pyrazol-3-yl)-3-{2-[8-(2,4-dimethoxy-benzoyl)-8-aza-bicyclo[3.2.1]oct-3-ylmethyl]-phenyl}-urea] | – | – | 5110 | 6750

Further lines, with some results ahead:

Row | IC50 [1] [nM] | IC50 [2, 5] [nM] | SMILES | IC50 [2, 4] [nM] | IC50 [3] [nM]
12 | 10 to 100 | 10 to 500 | CC(=O)NCC(=O)N1CCC(Cc2ccc(NC(=O)Nc3cc(C(C)(C)C)nn3-c3ccc(C)cc3)cc2)CC1 [Compound A375, N-[2-(4-{4-[3-(5-tert-Butyl-2-p-tolyl-2H-pyrazol-3-yl)-ureido]-benzyl}-piperidin-1-yl)-2-oxo-ethyl]-acetamide] | – | –
13 | 10 to 100 | 10 to 500 | Cc1ccc(-n2nc(C(C)(C)C)cc2NC(=O)Nc2ccc(CC3CCN(C(=O)c4cccnc4)CC3)cc2)cc1 [Compound A377, 1-(5-tert-Butyl-2-p-tolyl-2H-pyrazol-3-yl)-3-{4-[1-(pyridine-3-carbonyl)-piperidin-4-ylmethyl]-phenyl}-urea] | – | –
14 | 10 to 100 | 10 to 500 | Cc1ccc(-n2nc(C(C)(C)C)cc2NC(=O)Nc2ccc(CC3CCN(C(=O)c4ccc5ncccc5c4)CC3)cc2)cc1 [Compound A386, 1-(5-tert-Butyl-2-p-tolyl-2H-pyrazol-3-yl)-3-{4-[1-(quinoline-6-carbonyl)-piperidin-4-ylmethyl]-phenyl}-urea] | – | –
15 | 10 to 100 | 10 to 500 | Cc1ccc(-n2nc(C(C)(C)C)cc2NC(=O)Nc2ccc(CC3CCN(S(C)(=O)=O)CC3)cc2)cc1 [Compound A608, 1-(5-tert-Butyl-2-p-tolyl-2H-pyrazol-3-yl)-3-[4-(1-methanesulfonyl-piperidin-4-ylmethyl)-phenyl]-urea] | – | –
16 | – | 10 to 500 | COc1ccc(C(=O)N2CCC(Cc3ccccc3NC(=O)Nc3cc(C(C)(C)C)nn3-c3ccc(C)cc3)CC2)c(OC)c1 [Compound A1113, 1-(5-tert-butyl-2-p-tolyl-2H-pyrazol-3-yl)-3-{2-[1-(2,4-dimethoxy-benzoyl)-piperidin-4-ylmethyl]-phenyl}-urea] | 83 | 500
17 | 10 to 100 | 10 to 500 | Cc1ccc(-n2nc(C(C)(C)C)cc2NC(=O)Nc2ccc(CC3CCN(C(=O)OCc4ccccc4)CC3)cc2)cc1 [Compound A1610, 4-{4-[3-(5-tert-Butyl-2-p-tolyl-2H-pyrazol-3-yl)-ureido]-benzyl}-piperidine-1-carboxylic acid benzyl ester] | – | –
18 | 10 to 100 | 10 to 500 | Cc1ccc(-n2nc(C(C)(C)C)cc2NC(=O)Nc2ccc(CC3CCN(C(=O)OCC(C)C)CC3)cc2)cc1 [Compound A1625, 4-{4-[3-(5-tert-Butyl-2-p-tolyl-2H-pyrazol-3-yl)-ureido]-benzyl}-piperidine-1-carboxylic acid isobutyl ester] | – | –
19 | 10 to 100 | 10 to 500 | COc1ccc(OC)c(C(=O)N2CCC(Cc3cccc(NC(=O)Nc4cc(C(C)(C)C)nn4-c4ccc(C)cc4)c3)CC2)c1 [Compound A1636, 1-(5-tert-Butyl-2-p-tolyl-2H-pyrazol-3-yl)-3-{3-[1-(2,5-dimethoxy-benzoyl)-piperidin-4-ylmethyl]-phenyl}-urea] | – | –
